“And” between values parts separate entries of the source, which are not always exact repeats. Identical values can stand only once. Like-named read-outs stand apart in the source and are kept apart here.
Experiments:
[1] = test system: E. coli; type: cell-based, Escherichia coli; settings: 24 h contact time
Procedure: Escherichia coli ATCC 11229 (Culti-loops, Remel Europe, Dartford, Kent, UK) and Pseudomonas aeruginosa ATCC 15442 (Cuti-loops, Remel Europe, Dartford, Kent, UK) were selected as model Gram-negative organisms for the challenge testing of the antimicrobial coatings. Each bacterial strain was streaked for isolated colonies on Tryptic Soy Agar (TSA) plates (Difco, Becton Dickinson, Sparks, Md., U.S.A.) and incubated at 37° C. for 12 to 18 hours. Broth cultures were prepared by first picking 1-2 isolated colonies from TSA plates and inoculating 5 mL Tryptic Soy Broth (TSB; Difco, Becton Dickinson, Sparks, Md., U.S.A.) in a 16 mm test tube. This culture was grown in a shaking water bath at 150 RPM for 8 hours at 37° C. After the eight hours, 125 μL of this culture was added to 50 mL of TSB in a side-arm Klett flask and grown for approximately 8 hours in shaking water bath (150 RPM) at 37° C. The bacterial broths were grown to an A590 of 1.2-1.5, which correlated to approximately 10^9 CFU (colony forming units)/mL. 25 mL of this broth were transferred to a sterile 30 mL Oakridge tube and centrifuged at 12,000×g for 10 minutes at 4° C. (Sorval SS34 rotor) to pelletize the bacteria. The bacterial pellet was washed once and resuspended in 25 mL of phosphate buffer solution (PBS; BBL, FTA Hemaglutination Buffer, Becton Dickinson, Sparks, Md., U.S.A.). The suspension was diluted with PBS to achieve the target range of 10^5-10^6 CFU/mL and used to inoculate the slides containing antibacterial coatings.
Xylene/methanol (5:1 by weight) is used to dissolve the silver surfactants to facilitate homogeneously mixing with the alkyd resin composition.
A minus sign (−) denotes no growth, a plus sign (+) denotes confluent growth, and a capital P (P) denotes […].
Xylene/methanol (5:1 by weight) is used to dissolve the silver surfactants to facilitate homogeneously mixing with the acrylic resin composition.
The same laboratory experimental solvent based acrylic paint described in Example 34 is used to challenge E. coli by adding various levels of the invention silver anionic surfactants as described in Example 34.
A commercially available 2K epoxy resin paint is obtained from a local paint store (Sherwin Williams High Solids Epoxy Tile Clad HS; Part A B62WC11; Part B B60VZ75, The Sherwin Williams Company) and the same silver anionic surfactants described in Example 35 are used to prepare test coatings on microscope slides containing various levels of silver ion. These surfactants are dissolved in xylene/methanol (5:1 by weight) to facilitate their quantitative addition to the coating mixture.

[2] = test system: Streptococcus pyogenes; assay: Growth on surfactant/TSA agar plates; type: cell-based; settings: Streptococcus pyogenes strain EM14; also: test concentration or dose not given here
[3] = test system: Enterococcus fecalis; assay: Growth on surfactant/TSA agar plates; type: cell-based; also: test concentration or dose not given here
[4] = test system: Micrococcus luteus; assay: Growth on surfactant/TSA agar plates; type: cell-based; settings: Micrococcus luteus strain EM17
[5] = test system: Staphylococcus aureus; assay: Growth on surfactant/TSA agar plates; type: cell-based; also: test concentration or dose not given here
[6] = test system: Streptococcus bovis; assay: Growth on surfactant/TSA agar plates; type: cell-based; settings: Streptococcus bovis strain EM12
[7] = test system: Streptococcus viridans; assay: Growth on surfactant/TSA agar plates; type: cell-based; settings: Streptococcus viridans strain EM8
[8] = test system: Bacillus subtilis; assay: Growth on surfactant/TSA agar plates; type: cell-based; also: test concentration or dose not given here
[9] = test system: Staphylococcus epidermidis; assay: Growth on surfactant/TSA agar plates; type: cell-based; settings: Staphylococcus epidermidis strain EM3/ATCC12228
[10] = test system: Streptococcus agalactiae; assay: Growth on surfactant/TSA agar plates; type: cell-based; settings: Streptococcus agalactiae strain EM13
[11] = laboratory solvent based acrylic paint
[12] = Enterococcus fecalis strain EM19 (first listing)
[13] = Enterococcus fecalis strain EM19 (second listing)
[14] = Staphylococcus aureus strain ATCC6538
[15] = Staphylococcus aureus strain EM24/ATCC25923
[16] = Bacillus subtilis strain ATCC33

CCCCCCCCCCCCOS(=O)(=O)[O-].[Ag+] [AgDS, Silver dodecylsufate]
E. coli growth on coating ([1]; alkyd resin paint, 0.0012 weight % Ag in coating): + | E. coli growth on coating ([1]; alkyd resin paint, 0.003 weight % Ag in coating): + | E. coli growth on coating ([1]; alkyd resin paint, 0.006 weight % Ag in coating): + | E. coli growth on coating ([1]; alkyd resin paint, 0.012 weight % Ag in coating): + | E. coli growth on coating ([1]; alkyd resin paint, 0.03 weight % Ag in coating): − | E. coli growth on coating ([1]; alkyd resin paint, 0.06 weight % Ag in coating): − | E. coli growth on coating ([1]; alkyd resin paint, 0.12 weight % Ag in coating): − | E. coli growth on coating ([1]; commercial 2K epoxy paint, 0.0012 weight % Ag in coating): + | E. coli growth on coating ([1]; commercial 2K epoxy paint, 0.003 weight % Ag in coating): + | E. coli growth on coating ([1]; commercial 2K epoxy paint, 0.006 weight % Ag in coating): + | E. coli growth on coating ([1]; commercial 2K epoxy paint, 0.03 weight % Ag in coating): − | E. coli growth on coating ([1]; commercial 2K epoxy paint, 0.06 weight % Ag in coating): − | E. coli growth on coating ([1]; commercial 2K epoxy paint, 0.12 weight % Ag in coating): − | Silver level giving complete inhibition of growth ([1]; commercial 2K epoxy paint): 0.03 % w/w | Silver level partially effective ([1]; commercial 2K epoxy paint): 0.012 % w/w | E. coli growth on coating ([1]; commercial solvent borne acrylate paint, 0.0012 weight % Ag in coating): + | E. coli growth on coating ([1]; commercial solvent borne acrylate paint, 0.003 weight % Ag in coating): + | E. coli growth on coating ([1]; commercial solvent borne acrylate paint, 0.006 weight % Ag in coating): + | E. coli growth on coating ([1]; commercial solvent borne acrylate paint, 0.012 weight % Ag in coating): + | E. coli growth on coating ([1]; commercial solvent borne acrylate paint, 0.03 weight % Ag in coating): − | E. coli growth on coating ([1]; commercial solvent borne acrylate paint, 0.06 weight % Ag in coating): − | E. coli growth on coating ([1]; commercial solvent borne acrylate paint, 0.12 weight % Ag in coating): − | Silver level effective at preventing any growth ([1]; commercial solvent borne acrylic paint): completely effective at this lower level | Silver level preventing any growth [1, 11]: 0.03 % w/w | Silver level with partial inhibition [1, 11]: 0.012% | E. coli growth on coating ([1]; laboratory solvent borne acrylate paint, 0.0012 weight % Ag in coating): + | E. coli growth on coating ([1]; laboratory solvent borne acrylate paint, 0.003 weight % Ag in coating): + | E. coli growth on coating ([1]; laboratory solvent borne acrylate paint, 0.006 weight % Ag in coating): + | E. coli growth on coating ([1]; laboratory solvent borne acrylate paint, 0.03 weight % Ag in coating): − | E. coli growth on coating ([1]; laboratory solvent borne acrylate paint, 0.06 weight % Ag in coating): − | E. coli growth on coating ([1]; laboratory solvent borne acrylate paint, 0.12 weight % Ag in coating): −

CCCCC(CC)COC(=O)CC(C(=O)OCC(CC)CCCC)S(=O)(=O)[O-].[Na+] (stereo not shown) [Compound S1]
No Growth(−)/Full Growth(+), replicate columns [2]: − | No Growth(−)/Full Growth(+), replicate columns [3, 12]: − | No Growth(−)/Full Growth(+), replicate columns [3, 13]: − | No Growth(−)/Full Growth(+), replicate columns [4]: − | No Growth(−)/Full Growth(+), replicate columns [5, 14]: − | No Growth(−)/Full Growth(+), replicate columns [5, 15]: − | No Growth(−)/Full Growth(+), replicate columns [6]: − | No Growth(−)/Full Growth(+), replicate columns [7]: − | No Growth(−)/Full Growth(+), replicate columns [8, 16]: − | No Growth(−)/Full Growth(+), replicate columns ([8]; Bacillus subtilis strain EM27): − | No Growth(−)/Full Growth(+), replicate columns [9]: − | No Growth(−)/Full Growth(+), replicate columns [10]: −

CCCCC(CC)COP(=O)([O-])OCCC(CC)CCC.[Na+] (stereo not shown) [Compound S2]
No Growth(−)/Full Growth(+), replicate columns [2]: − | No Growth(−)/Full Growth(+), replicate columns [3, 12]: − | No Growth(−)/Full Growth(+), replicate columns [3, 13]: − | No Growth(−)/Full Growth(+), replicate columns [4]: − | No Growth(−)/Full Growth(+), replicate columns [5, 14]: − | No Growth(−)/Full Growth(+), replicate columns [5, 15]: − | No Growth(−)/Full Growth(+), replicate columns [6]: − | No Growth(−)/Full Growth(+), replicate columns [7]: − | No Growth(−)/Full Growth(+), replicate columns [8, 16]: − | No Growth(−)/Full Growth(+), replicate columns ([8]; Bacillus subtilis strain EM27): − | No Growth(−)/Full Growth(+), replicate columns [9]: − | No Growth(−)/Full Growth(+), replicate columns [10]: −

CCCCCCCCCCCCCCCCCCNC(=O)CC(C(=O)[O-])S(=O)(=O)[O-].[Na+].[Na+] (stereo not shown) [Compound S3]
No Growth(−)/Full Growth(+), replicate columns [2]: − | No Growth(−)/Full Growth(+), replicate columns [3, 12]: − | No Growth(−)/Full Growth(+), replicate columns [3, 13]: + | No Growth(−)/Full Growth(+), replicate columns [4]: − | No Growth(−)/Full Growth(+), replicate columns [5, 14]: − | No Growth(−)/Full Growth(+), replicate columns [5, 15]: − | No Growth(−)/Full Growth(+), replicate columns [6]: − | No Growth(−)/Full Growth(+), replicate columns [7]: + | No Growth(−)/Full Growth(+), replicate columns [8, 16]: − | No Growth(−)/Full Growth(+), replicate columns ([8]; Bacillus subtilis strain EM27): − | No Growth(−)/Full Growth(+), replicate columns [9]: − | No Growth(−)/Full Growth(+), replicate columns [10]: −

CC(C)CC(C)OC(=O)CC(C(=O)OC(C)CC(C)C)S(=O)(=O)[O-].[Na+] (stereo not shown) [Compound S4]
No Growth(−)/Full Growth(+), replicate columns [2]: − | No Growth(−)/Full Growth(+), replicate columns [3, 12]: + | No Growth(−)/Full Growth(+), replicate columns [3, 13]: + | No Growth(−)/Full Growth(+), replicate columns [4]: − (2×) and + | No Growth(−)/Full Growth(+), replicate columns [5, 14]: + | No Growth(−)/Full Growth(+), replicate columns [5, 15]: + | No Growth(−)/Full Growth(+), replicate columns [6]: − | No Growth(−)/Full Growth(+), replicate columns [7]: + | No Growth(−)/Full Growth(+), replicate columns [8, 16]: − and + | No Growth(−)/Full Growth(+), replicate columns ([8]; Bacillus subtilis strain EM27): + | No Growth(−)/Full Growth(+), replicate columns [9]: + | No Growth(−)/Full Growth(+), replicate columns [10]: − and +

O=C(CC(C(=O)OC1CCCCC1)S(=O)(=O)[O-])OC1CCCCC1.[Na+] (stereo not shown) [Compound S5]
No Growth(−)/Full Growth(+), replicate columns [2]: − | No Growth(−)/Full Growth(+), replicate columns [3, 12]: + | No Growth(−)/Full Growth(+), replicate columns [3, 13]: + | No Growth(−)/Full Growth(+), replicate columns [4]: + and − (2×) | No Growth(−)/Full Growth(+), replicate columns [5, 14]: + | No Growth(−)/Full Growth(+), replicate columns [5, 15]: + | No Growth(−)/Full Growth(+), replicate columns [6]: − | No Growth(−)/Full Growth(+), replicate columns [7]: + | No Growth(−)/Full Growth(+), replicate columns [8, 16]: − | No Growth(−)/Full Growth(+), replicate columns ([8]; Bacillus subtilis strain EM27): − and + | No Growth(−)/Full Growth(+), replicate columns [9]: + | No Growth(−)/Full Growth(+), replicate columns [10]: − (2×) and +
